Data set [1] deals with Alzheimer-type dementia patients.
Method: Patient. […] After 11 months from the start of the donepezil hydrochloride administration, concomitant administration of sustained release tablets of sodium valproate (twice a day after breakfast and dinner with 200 mg tablet×2) was started.
Patient. […] After 35 months from the start of the donepezil hydrochloride administration, concomitant administration of sustained release tablets of sodium valproate (twice a day after breakfast and dinner with 200 mg tablet×2) was started.
Patient. […] Concomitant administration of sustained release tablets of sodium valproate (twice a day after breakfast and dinner with 200 mg tablet×2) was started 48 months after the start of the donepezil hydrochloride administration. […] Sustained release tablets of sodium valproate (200 mg tablet×3) were administered from eight months after the start of the concomitant administration.
A further data set deals with Alzheimer-type dementia. The settings on record: donepezil hydrochloride alone; cited from earlier work.
The test system of data set [2] is Alzheimer-type dementia patients. As to conditions: cited from earlier work; for Improving effect on the behavioral and psychological symptoms such as agitation: solely administered, Am. J. Geriatr. Psychiatry 2005.

Data on three molecules can be found in patent US20130059888A1.

Each structure is given as a SMILES string. Counter-ions that a name gives are not always drawn. Like-named read-outs stand apart in the source and are kept apart here.

On to `COc1cc2c(cc1OC)C(=O)C(CC1CCN(Cc3ccccc3)CC1)C2` (stereo not drawn) [donepezil hydrochloride], for which, in data set [1] (Example 1 patient, donepezil alone 5 mg once a day, two months from start), the Problem behaviors entry is reported as “did not subside”. Besides, the Symptoms observed result in data set [1] (Example 2 patient, donepezil alone 5 mg once a day, two months after start) is “symptoms of incontinentia and the like were observed”; in data set [1] (Example 2 patient, donepezil alone, four months after start), “visual hallucination, incontinentia, aggressive attitude and the like were observed”; in data set [1] (Example 3 patient, donepezil alone 5 mg once a day, 15 months after start), “dressing apraxia was observed”; in data set [1] (Example 3 patient, donepezil alone, 23 months after start) it was “visual hallucination, soliloquy, emotional attitude, dressing apraxia, and stereotypy were observed”; in data set [1] (Example 3 patient, donepezil alone, 25 months after start) it was “visual hallucination, delusion of persecution and the like”; in data set [1] (Example 4 patient, donepezil alone 5 mg once a day, two months after start), “visual hallucination was not observed, but they spoke only their events in the old days and showed stereotypy”. Further, the Symptoms observed entry in data set [1] (Example 5 patient, donepezil alone, 41 months after start) was “refusal of oral administration of medicaments, soliloquy and dressing apraxia”. For the same molecule, the Inspection findings entry in data set [1] (Example 5 patient, donepezil alone 5 mg once a day, 24 months after start) is on record as “atrophy of the hippocampus was marked”. Further, the Cognitive disorder result in data set [1] (Example 5 patient, donepezil alone, thirty nine months after start) is listed as “advanced”. Moreover, in the data set on Alzheimer-type dementia, the “Duration of improving action against the cognitive symptoms” value is listed as “about one year at the longest”. The “Effect on the cognitive symptoms” value in the data set on Alzheimer-type dementia was “certain effects for retarding onset or relieving of the cognitive symptoms”.
With `CCCC(CCC)C(=O)[O-].[Na+]` [sodium valproate], the “Improving effect on the behavioral and psychological symptoms such as agitation” value in data set [2] was “no improving effect”.
For the molecule `CCCC(CCC)C(=O)O` [valproic acid], in data set [2] (general statement on valproic acid and a salt thereof), the Side reactions result is “little side reactions such as sleepiness”. Moreover, the “Improving effect on the behavioral and psychological symptoms such as agitation” value in data set [2] is “does not exhibit any improving effect”.
